Results: patent US8404847B2, “Method for producing diamine derivative” (Daiichi Sankyo Company, Limited, priority 2008, dated 2013)

Legend:
[1] = Solubility of compound A under crystallization conditions with varying amounts of TsOH.H2O (Test Example 1); assay type: physicochemical; conditions: ethanol having a water content of 10%, 10° C.
Experimental: The ordinate depicts the solubility (mg/ml) of compound A, and the abscissa depicts the molar equivalent of p-toluenesulfonic acid monohydrate (vs. compound B).
The solubility of compound A was determined using varying amounts of TsOH.H2O under conditions for crystallizing compound A (ethanol having a water content of 10%, 10° C.). Specifically, compound A, compound B, and TsOH.H2O were added in the combinations shown below to 10 ml of ethanol having a water content of 10%. The resulting slurry was stirred at 10° C., and crystals were collected by filtration. Then, the content of the compound A contained in the filtered mother liquor was measured by HPLC (column: Shiseido CAPCELL PAK CN UG120 (4.6×250 mm), column temperature: 40° C., flow rate: 1.0 ml/min., mobile phase: acetonitrile:0.02 M phosphate buffer (pH 7.0)=30:70).

[2] = Stability of compound B under dissolution conditions with varying amounts of TsOH.H2O (Test Example 2); assay type: physicochemical; conditions: ethanol having a water content of 30%, 70° C.
Experimental: FIG. 2 depicts time-dependent (hr; abscissa) change in the amount of compound B (%; ordinate) with the initial (0 hr) amount of compound B defined as 100%.
The stability of compound B was determined using varying amounts of TsOH.H2O under conditions for dissolving compound B in a solvent (ethanol having a water content of 30%, 70° C.). Specifically, 7 ml of ethanol having a water content of 30% and TsOH.H2O were added in combinations shown below to 1.0 g of compound B, followed by dissolution at 70° C. The content of the compound B was measured at constant time intervals by HPLC (column: Shiseido CAPCELL PAK CN UG120 (4.6×250 mm), column temperature: 40° C., flow rate: 1.0 ml/min., mobile phase: acetonitrile:0.02 M phosphate buffer (pH 7.0)=30:70).

solubility of compound A ([1]; TsOH.H2O larger than 1.00 molar equivalent with respect to compound B) | solubility of compound A ([1]; TsOH.H2O smaller than 1.00 molar equivalent with respect to compound B) | decomposition of compound B (decrease in compound B content) ([2]; TsOH.H2O at less than 1.0 molar equivalent (vs. compound B)) | decomposition of compound B (decrease in compound B content) ([2]; TsOH.H2O at more than 1.0 molar equivalent (vs. compound B)) | SMILES
reduced | increased | – | – | CN1CCc2nc(C(=O)N[C@@H]3C[C@@H](C(=O)N(C)C)CC[C@@H]3NC(=O)C(=O)Nc3ccc(Cl)cn3)sc2C1.Cc1ccc(S(=O)(=O)O)cc1.O [compound A, N^1-(5-chloropyridin-2-yl)-N^2-((1S,2R,4S)-4-[(dimethylamino)carbonyl]-2-{[(5-methyl-4,5,6,7-tetrahydrothiazolo[5,4-c]pyridin-2-yl)carbonyl]amino}cyclohexyl)ethanediamide p-toluenesulfonic acid monohydrate]
– | – | suppressed | promoted with the excess | CN1CCc2nc(C(=O)N[C@@H]3C[C@@H](C(=O)N(C)C)CC[C@@H]3NC(=O)C(=O)Nc3ccc(Cl)cn3)sc2C1 [compound B, N^1-(5-chloropyridin-2-yl)-N^2-((1S,2R,4S)-4-[(dimethylamino)carbonyl]-2-{[(5-methyl-4,5,6,7-tetrahydrothiazolo[5,4-c]pyridin-2-yl)carbonyl]amino}cyclohexyl)ethanediamide]
